Here are results for 1 substance from US9856480B2, “Dnazyme for silencing the expression of EGFR” (DCB-USA LLC, priority 2013, dated 2018).

Strand notation (5' to 3'): a small letter for the sugar, then the base; units joined by * are phosphorothioate-linked, units joined directly phosphodiester-linked; [ ] holds rarer units or linkages, { } end groups; capitals alone tell only the bases. d = 2'-deoxy (DNA)

In one series the test system is wild-type EGFR mRNA. Description: Real-time PCR of EGFR mRNA knockdown. The class given is cell-based, human. The conditions noted are these: 100 nM with lipofectamine 2000, 48 h. The protocol:
(§1) A549, CL1-5, H1975, or CL97 was seeded onto 6-well at 3×10^5 cells/well and cultured overnight. Then, cells were separately treated with 100 nM DzControl or DzT790M-1 with lipofectamine 2000 (Invitrogen). After 48 h, total mRNA were extracted from DNAzyme-treated cells by Mestrisol following manufacturer's protocol. cDNA were synthesized by using RT III kit with random hexamers as primers (Invitrogen). The PCR primers were synthesized by Genomics BioSci & Tech (Taipei, Taiwan). The sequences of PCR primers are listed as follows: […]
(§2) The parameters for PCR were: 95° C. for 10 min, then 25 cycles of PCR at 95° C. for 30 s, 60° C. for 30 s, and 72° C. for 60 s. 3% agarose gels were used for electrophoresis of PCR products. The intensity of bands were quantified by Image J. Quantitative RT-PCR was performed on 40 ng total mRNA with the LightCycler 480 system (Roche). The PCR mix contained 5 μl of 2× Probe Master mix, 100 nM of UPL probe (Roche Diagnostics, Penzberg, Germany), 200 nM of forward primer and reverse primer, 0.1 ul RNAseout (Invitrogen), and 0.025 ul RTIII enzyme (Invitrogen) in a total volume of 10 μl. PCR parameters were as follows: 50° C. for 40 min, then 45 cycles of PCR at 95° C. for 10 s, 60° C. for 10 s, and 72° C. for 2 s. Data were analyzed by LC480 software (Roche Diagnostics, Penzberg, Germany). The relative amount of EGFR mRNA was normalized to ACTB mRNA. The sequences of PCR primers are as follows: […]
(§3) To examine the allele selectivity of DzT790M-1, EGFR mRNA knockdown efficiency was detected in two cell lines harboring wild-type EGFR (A549, CL1-5) and two cell lines containing EGFR T790M mutation (H1975, CL97). A549, CL1-5, H1975, or CL97 was seeded onto 6-well at 3×10^5 cells/well and cultured overnight. Then, cells were separately treated with 100 nM DzControl or DzT790M-1 with lipofectamine 2000 (Invitrogen). After 48 h, total mRNA was extracted. […] DzT790M-1 knocked down 68.2% and 77.4% T790M EGFR mRNA expression in H1975 and CL97 cells respectively. In contrast, in A549 and CL1-5 cells, only 1.1% and 19.2% wild-type EGFR mRNA expression was affected.

The next series relates to T790M EGFR mRNA. Description: Real-time PCR of EGFR mRNA knockdown. Format: cell-based, human. The conditions noted are these: 100 nM with lipofectamine 2000, 48 h. The protocol: as §1, §2, §3

In the case of “DzT790M-1: 10-23 DNAzyme against EGFR T790M mRNA, arms 10/4, phosphorothioate ends: AGCTGCATGAGGCTAGCTACAACGAGAGC (DNA dA*dGdCdTdGdCdAdTdGdAdGdGdCdTdAdGdCdTdAdCdAdAdCdGdAdGdAdG*dC; further chemistry not fully specified)”, the “remained EGFR mRNA expression (real-time PCR)” value with wild-type EGFR mRNA (A549 cells) was found to be 121%; in the series with wild-type EGFR mRNA (CL1-5 cells), 95%; in the series on T790M EGFR mRNA (CL97 cells), 54%; in the series with T790M EGFR mRNA (H1975 cells), 32%.
